Patent US10239871B2, “Compounds and methods for regulating integrins” (ADHAERE PHARMACEUTICALS, INC., priority 2012, dated 2019)

Experiments:
[1] = tested on: Human Umbilical Vein Endothelial Cells; experiment: TUNEL assay, HUVEC co-cultured with LA1-activated neutrophils; format: cell-based; details: LA1-mediated adhesion of neutrophils
From the text: In support of this argument, neither we nor others studying knock-in animals that express constitutively active mutants of integrins LFA-1 [54, 55] and […]4[…]7 [56] have observed any signs of vascular injury in any experimental model. FIGS. 22A-22E show an absence of apoptosis in co-cultures of LA-1 activated leukocytes and HUVEC cells.

Human macrophages = experiment: mRNA levels of pro-inflammatory factors in LPS-treated human macrophages; format: cell-based; details: co-treated with LPS
Method: It was shown that β2 integrin agonist leukdherin LA1 modulates the expression levels of various pro-inflammatory factors in cells. Human macrophages were treated with LPS in the absence or presence of LA1 in vitro and determined the levels of mRNA in the cells at various time points using Nanostring inflammation array (184 genes) and exiqon microRNA panels.

Cl66 cells = experiment: Cl66 tumor re-growth after irradiation; format: in vivo, mice
Method: Data shown are means±SEM. *, P<0.05; **, P<0.001 (by one-way ANOVA). In this experiment, four groups of tumor-bearing animals were used (n=11/group): 1) Treatment with saline alone (red line), 2) Treatment with leukadherins LA1 alone (orange line), 3) Treatment with a single dose of 20 Gy irradiation (two 10%+10% vertices) alone (black line) and 4) Treatment with a single dose of 20 Gy irradiation and then daily LA1 (at −2 hours) (blue line). The syngeneic murine mammary adenocarcinoma cell line Cl66 (moderately metastatic and is related to the highly metastatic 4T1 cell line) was orthotopically introduced in Balb/c animals, by injecting approximately 5×10^5 Cl66 cells under the left mammary fat pad of WT BALB/c mice (approximately 10 weeks old). The tumor size was measured using calipers every other day until the end of the experiment (approximately 5 weeks). 7-days post implantation, the tumors in all animals became palpable, with an average size of ˜100 mm3. At that time, animals in groups 3 and 4 were treated with irradiation. Animals in group 4 received LA1, starting at 2 hours prior to irradiation. […]
A syngeneic xenograft model was used to address the effects of inflammatory cell recruitment on tumor cell re-growth after radio-therapy. […] The tumor size was measured using calipers every other day until the end of the experiment (approximately 5 weeks). […]

neutrophil chemotaxis = details: previously shown [55]; cited from earlier work
CD11b/CD18 = CD11b/CD18 (Homo sapiens, UniProt P11215); details: earlier described [55]; cited from earlier work
C57BL/6J mice = experiment: Survival after sublethal total body irradiation; format: in vivo; details: 20 μg/animal for seven days
Method: Control groups (16 mice per group) of 6-8 weeks old C57BL/6J mice received a single sublethal dose (6 Gy) of total body radiation (TBI) and were monitored for survival with radiation alone. The experimental groups (16 mice per group) of 6-8 weeks old C57BL/6J received a single sublethal dose (6 Gy) of total body radiation (TBI) and were administered leukadherin LA1 (20 μg/animal) for seven consecutive days. Additionally, two additional control groups of animals were monitored—animals with no treatment at all or animals that were administered LA1 for seven consecutive days in the absence of any irradiation.

Diabetic nephropathy = Diabetic nephropathy model (BTBR ob/ob mouse); format: in vivo
Method: The efficacy of LA1 was tested in an experimental model of Diabetic nephropathy (DN), where inflammation plays a major role. It was surmised that reducing leukocyte activation, recruitment and influx can be a beneficial strategy for developing therapeutics against DN.

[2] = tested on: RAW 264.7 macrophage cells; experiment: Wound healing assay (macrophage migration); format: cell-based, murine; details: LA1 15 μM, M18/2 20 μg/mL, 48 hours
Method: Murine RAW 264.7 macrophage cells were grown in DMEM 10% FBS medium in T75 flasks to 70% confluence. The cells were detached by trypsin treatment for 10 minutes at 37° C. and evenly reseeded in 24 well plates and allowed to attain >70% confluency. A scratch was introduced horizontally across the well using 200 µL tip applying even force throughout the etching and holding the tip at approximately an 80 degree angle. The wells were subsequently washed and fresh medium containing various treatment groups was introduced. The wound was imaged using 10× objective. The cells were allowed to grow for 48 hours and the wound was reimaged at the same field after 48 hours. The average extent of wound closure was evaluated by measuring the width of the wound. The area healed was analyzed using ImageJ software and is expressed as percentage healing after 48 hours.
For FIG. 4B, RAW 264.7 cells were plated in 24-well tissue culture plates (2×10^6 cells/well) and allowed to adhere in complete media for 12 hours. […] Images of the cells in culture were obtained immediately prior to (0 hours) and after the completion of the experiment (48 hours) using an inverted phase contrast microscope attached to a video camera.
Representative data shown here are from a triplicate well experiment from one of at least two to three independent experiments. **p<0.001, ***p<0.0001.

[3] = LA1 concentration in mouse blood after PO and IP dosing (LC-MS); format: in vivo; details: 10 mg/kg, mice
SD rats = experiment: Subacute toxicity assessment in rats; format: in vivo, rat
Method: LA1 is non-toxic in vivo. A subacute toxicity assessment of LA1 in rats was performed.
LA1 had no effect on the daily food intake or growth.
Next, a subacute toxicity assessment was performed of LA1 in rats in the Comparative Pathology core. […] LA1 had no effect on the daily food intake or growth.

[4] = daily administration, fully diabetic animals

Structure (SMILES): O=C(O)c1ccc(-c2ccc(/C=C3\SC(=S)N(Cc4ccccc4)C3=O)o2)cc1 [LA1]
- HUVEC apoptosis (TUNEL) [1]: does not increase HUVEC apoptosis
- mRNA levels of pro-inflammatory factors upregulated by LPS (Human macrophages): significantly reduced
- rate of tumor growth, LA1 alone without irradiation (Cl66 cells; similar to irradiation alone): reduced rate of tumor growth
- rate of tumor growth post-irradiation (Cl66 cells; single dose 20 Gy plus LA1 from -2 hours): significant reduction in the rate of tumor growth post-irradiation
- neutrophil chemotaxis (neutrophil chemotaxis): impairs neutrophil chemotaxis
- affinity for CD11b/CD18 (CD11b/CD18): high-affinity
- animal mortality (C57BL/6J mice; with or without 6 Gy TBI): did not result in any increase in animal mortality
- effect on survival after sublethal TBI (C57BL/6J mice; 6 Gy TBI): protective effect
- glomerular damage and glomerular mesangial sclerosis (Diabetic nephropathy; BTBR ob/ob mouse model): reduced glomerular damage and glomerular mesangial sclerosis
- kidney function (Diabetic nephropathy; [4]): preserved kidney function
- number of infiltrating leukocytes in the kidney (Diabetic nephropathy; [4]): significantly reduced the number of infiltrating leukocytes
- migration of LPS- or PMA-stimulated macrophages [2]: significantly, and to a similar extent, reduced the migration
- migration of macrophages into the wound area, agonist alone ([2]; vs DMSO): no significant increase in the migration of macrophages
- bioavailability [3]: bioavailable
- concentration of LA1 in plasma [3]: high concentrations
- levels in blood [3]: micromolar levels
- mean residence time [3]: at least a few hours
- Haematological constants (SD rats; IP ~3 mg/kg/d for 21 d): on par with those of controls
- biochemical measurements in serum and liver (enzyme levels, serum constituents) (SD rats; IP ~3 mg/kg/d for 21 d): no appreciable changes
- daily food intake or growth (SD rats; IP ~3 mg/kg/d for 21 d): no effect
- overt toxicity or mortality (SD rats; IP ~3 mg/kg/d for 21 d, SD rats of both sexes): failed to induce any overt toxicity or mortality
- relative organ weights of vital organs and their histoarchitecture (SD rats; autopsy, lung, heart, spleen, liver, kidney): no significant alterations
